Patent US20100048503A1, “COMPOSITION FOR TREATMENT OF PANCREATIC CANCER” (Eisai R & D Management Co., Ltd., priority 2007, published 2010)
Structures can show the parent of a compound that is named as a salt.

Tests used:
[1] = tested on: Human pancreatic cancer cell line AsPC-1; assay: Combination use with gemcitabine hydrochloride in subcutaneous transplanted (xenograft) model in nude mouse; format: in vivo; details: AsPC-1 xenograft; for Relative tumor volume on Day 29 Average ± standard deviation: nude mouse
Protocol: Human pancreatic cancer cell line AsPC-1 (purchased from ATCC) was cultured in RPMI1640 (containing 10% FBS) in a 5% carbon dioxide gas incubator at 37° C. to about 80% confluence, and then the cells were collected with trypsin-EDTA. A 5×10^7 cells/mL suspension was prepared with a phosphate buffer, and each 0.1 mL of the resulting cell suspension was subcutaneously transplanted to a nude mouse at the side of its body. Eleven days after the transplantation, 4-(3-chloro-4-(cyclopropylaminocarbonyl)aminophenoxy)-7-methoxy-6-quinolinecarboxamide (3, 10 or 30 mg/kg, once a day for four weeks, oral) and gemcitabine hydrochloride (purchased from Eli Lilly Japan) (200 mg/kg, four times every three days, intravenous) were administered alone or in combination. The major and minor axes of tumors were measured with Digimatic caliper (Mitsutoyo Corporation), and tumor volumes and relative tumor volumes were calculated according to the following formulae: […] Relative Tumor Volume (RTV)=Tumor volume on measurement day/Tumor volume on the first administration day. […] The first day of administration was considered Day 1.

[2] = tested on: Human pancreatic cancer cell line AsPC-1; assay: Combination use with erlotinib hydrochloride in subcutaneous transplanted (xenograft) model in nude mouse; format: in vivo; details: oral, AsPC-1 xenograft; for Relative tumor volume on Day 29 Average ± standard deviation: once a day for four weeks, nude mouse
Protocol: Human pancreatic cancer cell line AsPC-1 (purchased from ATCC) was cultured in RPMI1640 (containing 10% FBS) in a 5% carbon dioxide gas incubator at 37° C. to about 80% confluence, and then the cells were collected with trypsin-EDTA. A 5×10^7 cells/mL suspension was prepared with a phosphate buffer, and each 0.11 mL of the resulting cell suspension was subcutaneously transplanted to a nude mouse at the side of its body. Ten days after the transplantation, 4-(3-chloro-4-(cyclopropylaminocarbonyl)aminophenoxy)-7-methoxy-6-quinolinecarboxamide (10 mg/kg, once a day for four weeks) and erlotinib hydrochloride (50 mg/kg, once a day for four weeks) were orally administered alone or in combination. The major and minor axes of tumors were measured with Digimatic caliper (Mitsutoyo Corporation), and tumor volumes and relative tumor volumes were calculated according to the following formulae: […] Relative Tumor Volume (RTV)=Tumor volume on measurement day/Tumor volume on the first administration day. […] The first day of administration was considered Day 1.

[3] = Compound A 3, 10 or 30 mg/kg oral in combination with gemcitabine hydrochloride 200 mg/kg intravenous
[4] = Compound A 10 mg/kg in combination with erlotinib hydrochloride 50 mg/kg

Nc1ccn([C@@H]2O[C@H](CO)C(O)C2(F)F)c(=O)n1 (single isomer, unassigned; (+)) [Gemcitabine hydrochloride, (+)-2′-deoxy-2′,2′-difluorocytidene, reference compound]
Relative tumor volume on Day 29 Average ± standard deviation ([1]; Gemcitabine hydrochloride 200 mg/kg alone, four times every three days, intravenous): 3.41 ± 0.41

COc1cc2nccc(Oc3ccc(NC(=O)NC4CC4)c(Cl)c3)c2cc1C(N)=O [Compound A, 4-(3-chloro-4-(cyclopropylaminocarbonyl)aminophenoxy)-7-methoxy-6-quinolinecarboxamide]
Relative tumor volume on Day 29 Average ± standard deviation ([1]; Compound A 3 mg/kg alone, once a day for four weeks, oral): 2.10 ± 0.64
Relative tumor volume on Day 29 Average ± standard deviation ([1]; Compound A 10 mg/kg alone, once a day for four weeks, oral): 1.79 ± 0.56
Relative tumor volume on Day 29 Average ± standard deviation ([1]; Compound A 30 mg/kg alone, once a day for four weeks, oral): 0.88 ± 0.27
Anti-tumor effect of combination use compared with either agent alone [1, 3]: superior anti-tumor effect
Effect when used in combination with gemcitabine hydrochloride [1, 3]: additive effect
Relative tumor volume on Day 29 Average ± standard deviation ([2]; Compound A 10 mg/kg alone): 1.84 ± 1.31
Anti-tumor effect of combination use compared with either agent alone [2, 4]: superior anti-tumor effect
Effect when used in combination with erlotinib hydrochloride [2, 4]: additive effect

C#Cc1cccc(Nc2ncnc3cc(OCCOC)c(OCCOC)cc23)c1 [Erlotinib hydrochloride, 4-(3-ethynylphenylamino)-6,7-bis(2-methoxyethoxy)-quinazoline, reference compound]
Relative tumor volume on Day 29 Average ± standard deviation ([2]; Erlotinib hydrochloride 50 mg/kg alone): 4.54 ± 0.18
